Measured values from patent publication US7632865B2, “Thioamides and salts thereof and cytokine production inhibitors containing both” (Ishihara Sangyo Kaisha, Ltd., priority 2004, dated 2009).

Compound	melting point [°C]
COc1cc(OC)nc(Oc2ccc(NC(=S)c3cc([N+](=O)[O-])ccc3Cl)cc2)n1 [Compound No. 19, N-(4-(4,6-dimethoxy-2-pyrimidinyloxy)phenyl)-2-chloro-5-nitrothiobenzamide]	220 to 222
O=[N+]([O-])c1ccc(F)c(C(=S)Nc2ccc(Oc3ncc(C(F)(F)F)cc3Cl)cc2F)c1 [Compound No. 12, N-(4-(3-chloro-5-trifluoromethyl-2-pyridyloxy)-2-fluorophenyl)-2-fluoro-5-nitrothiobenzamide]	146 to 147
CN(C)c1cc(C(F)(F)F)cc(OCCCNC(=S)c2cc([N+](=O)[O-])ccc2Cl)n1 [Compound No. 8, N-(3-(6-dimethylamino-4-trifluoromethyl-2-pyridyloxy)propyl)-2-chloro-5-nitrothiobenzamide]	102 to 103
O=[N+]([O-])c1ccc(Cl)c(C(=S)Nc2ccc(Oc3cc(C(F)(F)F)cc(Cl)n3)cc2)c1 [Compound No. 2, N-(4-(6-chloro-4-trifluoromethyl-2-pyridyloxy)phenyl)-2-chloro-5-nitrothiobenzamide]	186 to 187
CN(C)c1cc(C(F)(F)F)cc(OCCCNC(=S)c2cc([N+](=O)[O-])ccc2F)n1 [Compound No. 16, N-(3-(6-dimethylamino-4-trifluoromethyl-2-pyridyloxy)propyl)-2-fluoro-5-nitrothiobenzamide]	130 to 133
O=[N+]([O-])c1ccc(Cl)c(C(=S)Nc2ccc(Sc3cc(C(F)(F)F)cc(Cl)n3)cc2)c1 [Compound No. 7, N-(4-(6-chloro-4-trifluoromethyl-2-pyridylthio)phenyl)-2-chloro-5-nitrothiobenzamide]	183 to 186
COc1cc(OC)nc(OCCCNC(=S)c2cc([N+](=O)[O-])ccc2Cl)n1 [Compound No. 18, N-(3-(4,6-dimethoxy-2-pyrimidinyloxy)propyl)-2-chloro-5-nitrothiobenzamide]	119 to 120
O=[N+]([O-])c1ccc(Cl)c(C(=S)NCCCOc2cc(C(F)(F)F)cc(N3CCSCC3)n2)c1 [Compound No. 4, N-(3-(6-thiomorpholino-4-trifluoromethyl-2-pyridyloxy)propyl)-2-chloro-5-nitrothiobenzamide]	132 to 133

Results, then the compound that gave them:

melting point [°C]	Compound
229 to 230	N#Cc1ccc(Cl)c(C(=S)Nc2ccc(Oc3ncc(C(F)(F)F)cc3Cl)c(-n3cccc3)c2)c1 [Compound No. 17, N-(4-(3-chloro-5-trifluoromethyl-2-pyridyloxy)-3-(1H-pyrrol-1-yl)phenyl)-2-chloro-5-cyanothiobenzamide]
72 to 73	O=[N+]([O-])c1ccc(Cl)c(C(=S)Nc2ccc(Sc3ncc(C(F)(F)F)cc3Cl)cc2)c1 [Compound No. 5, N-(4-(3-chloro-5-trifluoromethyl-2-pyridylthio)phenyl)-2-chloro-5-nitrothiobenzamide]
175 to 176	FC(F)(F)c1cnc(Oc2ccc(NC(=S)c3cnc(Cl)cc3Cl)cc2)c(Cl)c1 [Compound No. 13, N-(4-(3-chloro-5-trifluoromethyl-2-pyridyloxy)phenyl)-4,6-dichlorothionicotinamide]
199 to 200	O=[N+]([O-])c1ccc(Cl)c(C(=S)Nc2ccc(Nc3ncc(C(F)(F)F)cc3Cl)cc2)c1 [Compound No. 6, N-(4-(3-chloro-5-trifluoromethyl-2-pyridylamino)phenyl)-2-chloro-5-nitrothiobenzamide]
186 to 187	O=[N+]([O-])c1ccc(Cl)c(C(=S)Nc2ccc(Oc3ncc(C(F)(F)F)cc3Cl)cc2)c1 [Compound No. 1, N-(4-(3-chloro-5-trifluoromethyl-2-pyridyloxy)phenyl)-2-chloro-5-nitrothiobenzamide]
193	O=[N+]([O-])c1ccc(Cl)c(C(=S)Nc2ccc(Oc3ncc(C(F)(F)F)cc3Cl)cc2F)c1 [Compound No. 11, N-(4-(3-chloro-5-trifluoromethyl-2-pyridyloxy)-2-fluorophenyl)-2-chloro-5-nitrothiobenzamide]
